# Where two headings read alike, the source gives them in different places.
# What was measured:
# Type in all cases: biochemical
# Settings in all cases: read-out: % inhibition at 1 mM
# BsGH164 [1] = target: T1, BsGH164 (Bacteroides salyersiae, UniProt I9SUA3); assay: residual activity with 4MU-beta-Man after preincubation; covalent crystal structure ([…] A) and intact MS
# T1 construct: gene HMPREF1071_03408; recombinant pET28-His6-BsGH164, E. coli, His6 kept; GH164 exo-beta-mannosidase
# T1 sequence (I9SUA3 20-673): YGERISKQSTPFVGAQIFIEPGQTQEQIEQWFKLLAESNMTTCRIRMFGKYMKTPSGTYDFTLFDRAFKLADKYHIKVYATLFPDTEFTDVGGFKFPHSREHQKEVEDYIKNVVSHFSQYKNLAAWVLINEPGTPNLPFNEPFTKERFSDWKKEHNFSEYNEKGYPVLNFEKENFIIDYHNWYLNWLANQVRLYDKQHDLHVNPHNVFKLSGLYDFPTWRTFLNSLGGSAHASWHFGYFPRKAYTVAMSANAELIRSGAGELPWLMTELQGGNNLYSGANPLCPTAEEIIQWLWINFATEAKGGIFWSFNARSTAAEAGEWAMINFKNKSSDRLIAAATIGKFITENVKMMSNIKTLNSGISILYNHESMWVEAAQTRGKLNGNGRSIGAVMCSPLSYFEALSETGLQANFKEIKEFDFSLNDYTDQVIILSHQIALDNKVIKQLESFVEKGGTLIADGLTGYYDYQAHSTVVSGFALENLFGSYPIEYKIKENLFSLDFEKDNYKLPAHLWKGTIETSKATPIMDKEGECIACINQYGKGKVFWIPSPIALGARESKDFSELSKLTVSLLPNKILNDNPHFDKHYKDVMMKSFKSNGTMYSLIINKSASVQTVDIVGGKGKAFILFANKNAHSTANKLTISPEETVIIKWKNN
# CmMan5A [2] = target: T2, CmMan5A (Cellvibrio mixtus, UniProt Q6QT42); assay: residual activity with 4MU-beta-Man after preincubation; intact MS
# T2 construct: gene man5A; recombinant, codon-optimised gene in pET24a (NdeI/XhoI), C-terminal 6xHis, E. coli; matches previously crystallised form; GH5
# T2 sequence (Q6QT42 26-456): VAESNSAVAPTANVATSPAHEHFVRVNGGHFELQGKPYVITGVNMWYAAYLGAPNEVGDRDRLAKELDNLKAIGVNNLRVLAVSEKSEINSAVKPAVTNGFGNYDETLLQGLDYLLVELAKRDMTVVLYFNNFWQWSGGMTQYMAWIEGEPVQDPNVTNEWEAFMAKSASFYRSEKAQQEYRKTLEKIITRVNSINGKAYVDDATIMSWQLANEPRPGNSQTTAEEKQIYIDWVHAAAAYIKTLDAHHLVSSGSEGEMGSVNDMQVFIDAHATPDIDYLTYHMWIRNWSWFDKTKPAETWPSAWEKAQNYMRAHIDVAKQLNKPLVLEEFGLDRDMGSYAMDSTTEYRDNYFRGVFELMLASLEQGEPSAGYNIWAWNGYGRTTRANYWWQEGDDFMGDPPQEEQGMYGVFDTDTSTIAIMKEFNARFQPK
# BsGH164 [3] = target: T1, BsGH164; assay: residual activity with 4MU-beta-Man after preincubation; covalent crystal structure ([…] A) and intact MS; remark: listed apart in the source
# BtMan2A = target: T3, BtMan2A (Bacteroides thetaiotaomicron, UniProt Q8AAK6); assay: as above
# T3 construct: gene BT_0458; recombinant pET28a-BtMan2A-His6, E. coli, His tag kept; GH2 exo-beta-mannosidase
# T3 sequence (Q8AAK6 26-864): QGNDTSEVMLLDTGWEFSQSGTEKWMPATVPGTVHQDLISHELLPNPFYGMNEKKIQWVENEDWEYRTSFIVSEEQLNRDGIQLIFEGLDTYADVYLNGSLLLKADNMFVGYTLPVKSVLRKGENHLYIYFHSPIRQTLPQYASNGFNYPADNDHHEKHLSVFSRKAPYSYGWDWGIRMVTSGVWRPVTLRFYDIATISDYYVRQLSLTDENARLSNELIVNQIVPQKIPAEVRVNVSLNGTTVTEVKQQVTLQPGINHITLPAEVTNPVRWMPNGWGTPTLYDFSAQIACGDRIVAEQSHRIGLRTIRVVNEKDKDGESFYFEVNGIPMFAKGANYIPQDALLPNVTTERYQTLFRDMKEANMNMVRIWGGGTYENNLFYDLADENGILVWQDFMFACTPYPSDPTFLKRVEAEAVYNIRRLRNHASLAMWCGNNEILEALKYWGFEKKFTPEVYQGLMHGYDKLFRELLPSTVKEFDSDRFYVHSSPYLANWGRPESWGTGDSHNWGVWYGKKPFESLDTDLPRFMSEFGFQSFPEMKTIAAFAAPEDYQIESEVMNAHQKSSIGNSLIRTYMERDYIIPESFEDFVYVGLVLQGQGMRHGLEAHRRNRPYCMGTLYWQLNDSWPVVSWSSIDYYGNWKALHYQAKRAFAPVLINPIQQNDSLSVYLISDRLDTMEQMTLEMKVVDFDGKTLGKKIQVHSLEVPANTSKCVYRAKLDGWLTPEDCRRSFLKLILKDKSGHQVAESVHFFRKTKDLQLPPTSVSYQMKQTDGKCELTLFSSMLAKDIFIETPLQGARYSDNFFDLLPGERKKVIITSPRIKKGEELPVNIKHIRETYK
# CmMan5A [4] = target: T2, CmMan5A; assay: as above
inhibition at 1000 µM (BsGH164 [1]) [%],SMILES,inhibition at 1000 µM (CmMan5A [2]) [%],inhibition at 1000 µM (BsGH164 [3]) [%],inhibition at 1000 µM (BtMan2A) [%],inhibition at 1000 µM (CmMan5A [4]) [%]
76,"OC[C@@H]1[C@@H](O)[C@H](O)[C@H](O)[C@@H]2O[C@H]12 [compound 1, β-D-manno-cyclophellitol]",20,–,–,–
–,"OC[C@@H]1[C@@H](O)[C@H](O)[C@H](O)[C@@H]2N[C@H]12 [compound 2, β-D-manno-cyclophellitol aziridine]",20,30,–,–
–,"[N-]=[N+]=NCCCCCCCCN1[C@@H]2[C@H](CO)[C@@H](O)[C@H](O)[C@H](O)[C@@H]21 (stereo partly drawn) [compound 3, N-octylazido aziridine 3]",–,–,85,85
